Measured values as given in US5457097A, “Androst-4-eno[4,5-b]pyrrole derivatives” (Farmitalia Carlo Erba S.r.l., priority 1992, dated 1995).
pIC50: −log10 of the molar value.

Target: T1, human placental aromatase (Homo sapiens, UniProt P11511)
T1 construct: utilizes the human placental microsomal fraction as enzyme source; from tissue; host or cells: human placenta, microsomal fraction
T1 sequence (P11511 1-503): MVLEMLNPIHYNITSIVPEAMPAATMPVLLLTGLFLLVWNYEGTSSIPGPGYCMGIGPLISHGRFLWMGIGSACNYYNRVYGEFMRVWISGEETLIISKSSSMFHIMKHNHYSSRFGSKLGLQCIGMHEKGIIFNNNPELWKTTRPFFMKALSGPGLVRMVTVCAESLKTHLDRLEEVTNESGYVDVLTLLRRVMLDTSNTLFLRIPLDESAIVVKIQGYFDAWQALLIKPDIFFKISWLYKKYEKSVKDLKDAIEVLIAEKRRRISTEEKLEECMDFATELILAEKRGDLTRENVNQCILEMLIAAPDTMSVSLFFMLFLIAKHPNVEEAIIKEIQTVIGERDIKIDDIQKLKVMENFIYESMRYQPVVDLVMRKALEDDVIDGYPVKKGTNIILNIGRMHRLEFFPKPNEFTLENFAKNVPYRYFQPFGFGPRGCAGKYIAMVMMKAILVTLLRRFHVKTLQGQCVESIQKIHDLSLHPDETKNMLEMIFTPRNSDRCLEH
Test: in vitro aromatase inhibition test (Thompson and Siiteri), 3H2O release from [1β-3H]androstenedione
Format: biochemical
Conditions: human placental microsomal fraction; [1β-3H]androstenedione 50 nM, NADPH, 15 min incubation at 37° C.; read-out: concentration producing 50% inhibition of human placental aromatase (IC50)
Protocol: The concentration of each compound required to reduce control aromatase activity by 50% (IC50) was determined by plotting % inhibition versus log of inhibitor concentration.

With `C[C@]12C=CC(=O)c3[nH]cc(c31)C[C@@H]1[C@@H]2CC[C@]2(C)C(=O)CC[C@@H]12` [3,17-dioxo-1'H-androsta-1,4-dieno[4,5-b]pyrrole] the pIC50 was 6.92.
